Calls of active or inactive are those of the source. The rule behind the calls is not given here.
Assays:
Adenosine receptor A3 [1] = target: T1, Adenosine receptor A3 (Homo sapiens, UniProt P0DMS8); assay: Binding affinity to human A3AR assessed as inhibitor constant
T1 sequence (P0DMS8 whole entry): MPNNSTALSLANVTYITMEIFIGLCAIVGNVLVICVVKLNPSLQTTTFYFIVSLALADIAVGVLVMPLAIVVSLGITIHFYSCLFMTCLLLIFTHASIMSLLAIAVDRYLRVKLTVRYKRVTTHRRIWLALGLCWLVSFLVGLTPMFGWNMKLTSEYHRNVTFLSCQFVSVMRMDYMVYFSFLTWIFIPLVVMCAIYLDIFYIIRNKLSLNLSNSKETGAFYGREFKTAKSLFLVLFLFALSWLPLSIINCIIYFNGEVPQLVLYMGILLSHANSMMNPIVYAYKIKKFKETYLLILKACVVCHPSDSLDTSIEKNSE

[2] = Stability in Sprague-Dawley rat liver microsomes; assay type: ADME, Microsome
[3] = Oral bioavailability in Sprague-Dawley rat; assay type: ADME, organism-based; conditions: in vivo
HepG2 = assay: Cytotoxicity against human HepG2 cells; assay type: cell-based
[4] = target: Beta-3 adrenergic receptor (Homo sapiens) (UniProt P13945); assay: Displacement of [125I]-Pindolol from human beta3 adrenergic receptor expressed in expressed in HEK Flp-In cells measured after 90 mins by microbeta scintillation counting method; assay type: cell-based
[5] = Stability in Sprague-Dawley rat plasma; assay type: ADME, cell-free
Adenosine receptor A2a [6] = target: T2, Adenosine receptor A2a (Homo sapiens, UniProt P29274); assay: Displacement of [3H]2-[p-(2-carboxyethyl)phenyl-ethylamino]-5'-N-ethylcarboxamidoadenosine from human A2A receptor expressed in HEK293 cells at 10 uM by radio ligand binding assay relative to control; assay type: cell-based
Adenosine receptor A1 [7] = target: T3, Adenosine receptor A1 (Homo sapiens, UniProt P30542); assay: Displacement of [3H]N6-R-phenylisopropyladenosine from human A1AR receptor expressed in HEK293 cells assessed as inhibitory constant by radio ligand binding assay; assay type: cell-based
T3 sequence (P30542 whole entry): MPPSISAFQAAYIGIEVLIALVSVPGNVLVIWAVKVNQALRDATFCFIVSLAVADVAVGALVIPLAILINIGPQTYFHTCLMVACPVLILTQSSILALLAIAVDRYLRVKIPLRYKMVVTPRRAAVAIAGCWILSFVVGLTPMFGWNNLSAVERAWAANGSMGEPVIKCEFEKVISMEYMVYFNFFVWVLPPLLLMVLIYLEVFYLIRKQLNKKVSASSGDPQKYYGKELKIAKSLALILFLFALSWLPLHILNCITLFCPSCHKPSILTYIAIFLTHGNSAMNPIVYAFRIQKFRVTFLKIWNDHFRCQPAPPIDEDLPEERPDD

Adenosine receptor A3 [8] = target: T1, Adenosine receptor A3; assay: Displacement of [125I]N6-(4-amino-3-iodobenzyl)adenosine-5'-N-methyluronamide from human […] expressed in CHO cell membranes assessed as inhibitor constant by radio ligand binding assay
Adenosine receptor A3 [9] = target: T4, Adenosine receptor A3 (Mus musculus, UniProt Q61618); assay: Displacement of [125I]AB-MECA from mouse […] expressed in HEK293 cell membranes assessed as inhibitor constant by radio ligand binding assay
T4 sequence (Q61618 whole entry): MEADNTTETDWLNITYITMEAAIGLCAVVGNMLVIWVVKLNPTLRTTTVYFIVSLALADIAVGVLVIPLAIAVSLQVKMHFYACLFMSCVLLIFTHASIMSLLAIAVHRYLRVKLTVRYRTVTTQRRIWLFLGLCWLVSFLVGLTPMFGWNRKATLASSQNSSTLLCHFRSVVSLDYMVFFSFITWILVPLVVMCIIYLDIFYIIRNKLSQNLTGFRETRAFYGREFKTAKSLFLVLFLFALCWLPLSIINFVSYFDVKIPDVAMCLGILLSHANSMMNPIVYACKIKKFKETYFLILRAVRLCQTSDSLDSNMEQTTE

[10] = target: T5, Adenosine receptor A1 (Mus musculus) (UniProt Q60612); assay: Displacement of [125I]AB-MECA from recombinant mouse A1AR expressed in HEK293 cells at 10 uM by radio ligand binding assay relative to control; assay type: cell-based; conditions: filed as agonist
T5 sequence (whole entry): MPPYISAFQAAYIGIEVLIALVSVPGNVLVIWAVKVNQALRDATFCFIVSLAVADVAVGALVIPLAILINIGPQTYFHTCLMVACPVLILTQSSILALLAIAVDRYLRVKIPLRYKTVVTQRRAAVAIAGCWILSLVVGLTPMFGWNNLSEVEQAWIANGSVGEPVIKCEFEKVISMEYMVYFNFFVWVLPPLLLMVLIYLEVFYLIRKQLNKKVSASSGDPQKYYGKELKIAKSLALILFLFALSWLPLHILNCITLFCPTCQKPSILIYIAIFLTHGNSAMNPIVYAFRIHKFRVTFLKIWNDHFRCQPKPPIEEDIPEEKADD

[11] = target: Adenosine receptor A2a (Mus musculus) (UniProt Q60613); assay: Displacement of [3H]CGS21680 from mouse A2A receptor expressed in HEK293 cells at 10 uM by radio ligand binding assay relative to control; assay type: cell-based
[12] = target: T6, Adenosine receptor A1 (Homo sapiens) (UniProt P30542); assay: Displacement of [3H]N6-R-phenylisopropyladenosine from human A1AR expressed in HEK293 cells at 10 uM by radio ligand binding assay relative to control; assay type: cell-based
T6 sequence (whole entry): T3 sequence (P30542 whole entry)

Adenosine receptor A2a [13] = target: T2, Adenosine receptor A2a; assay: Displacement of [3H]2-[p-(2-carboxyethyl)phenyl-ethylamino]-5'-N-ethylcarboxamidoadenosine from human A2A receptor expressed in HEK293 cells assessed as inhibitor constant by radio ligand binding assay; assay type: cell-based
Adenosine receptor A1 [14] = target: T7, Adenosine receptor A1 (Mus musculus, UniProt Q60612); assay: Displacement of [125I]AB-MECA from recombinant mouse A1AR expressed in HEK293 cells assessed as inhibitory constant by radio ligand binding assay; assay type: cell-based
T7 sequence (Q60612 whole entry): T5 sequence (whole entry)

[15] = target: T8, Adenosine receptor A2b (Homo sapiens) (UniProt P29275); assay: Agonist activity at Gs-coupled human A2B […] receptor expressed in CHO at 10 uM by cAMP based assay; assay type: functional, cell-based
T8 sequence (whole entry): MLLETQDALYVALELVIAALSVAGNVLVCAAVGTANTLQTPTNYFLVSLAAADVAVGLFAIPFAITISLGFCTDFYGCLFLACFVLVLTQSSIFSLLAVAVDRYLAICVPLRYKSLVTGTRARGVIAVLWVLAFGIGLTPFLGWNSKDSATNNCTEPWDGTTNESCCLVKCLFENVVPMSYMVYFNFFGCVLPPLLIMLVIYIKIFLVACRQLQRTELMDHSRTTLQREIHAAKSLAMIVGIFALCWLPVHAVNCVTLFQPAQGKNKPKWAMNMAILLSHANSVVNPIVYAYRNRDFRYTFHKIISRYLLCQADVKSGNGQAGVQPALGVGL

[16] = target: Sodium-dependent dopamine transporter (Homo sapiens, UniProt Q01959); assay: Displacement of [3H]-Win35428 from human recombinant DAT receptor expressed in stable HEK cells after 90 mins by microbeta scintillation counting method; assay type: cell-based
[17] = target: 5-hydroxytryptamine receptor 2B (Homo sapiens, UniProt P41595); assay: Displacement of [3H]-LSD from recombinant human 5HT2B receptor expressed in stable HEK cells after 90 mins by microbeta scintillation counting method; assay type: cell-based
Chain of 5-hydroxytryptamine receptor 2B (P41595 whole entry): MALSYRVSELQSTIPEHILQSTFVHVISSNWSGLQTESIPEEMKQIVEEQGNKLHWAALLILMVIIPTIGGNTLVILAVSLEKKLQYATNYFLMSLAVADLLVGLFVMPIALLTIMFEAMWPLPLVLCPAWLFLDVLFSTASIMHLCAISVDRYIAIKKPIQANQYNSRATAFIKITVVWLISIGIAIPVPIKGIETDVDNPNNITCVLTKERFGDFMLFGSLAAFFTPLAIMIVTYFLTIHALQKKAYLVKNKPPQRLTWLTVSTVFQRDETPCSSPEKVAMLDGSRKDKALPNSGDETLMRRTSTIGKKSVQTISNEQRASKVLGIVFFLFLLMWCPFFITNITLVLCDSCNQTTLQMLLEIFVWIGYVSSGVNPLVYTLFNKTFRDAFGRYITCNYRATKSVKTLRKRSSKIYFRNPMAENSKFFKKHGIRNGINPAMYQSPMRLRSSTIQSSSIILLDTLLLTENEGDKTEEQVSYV

T2 sequence (P29274 whole entry): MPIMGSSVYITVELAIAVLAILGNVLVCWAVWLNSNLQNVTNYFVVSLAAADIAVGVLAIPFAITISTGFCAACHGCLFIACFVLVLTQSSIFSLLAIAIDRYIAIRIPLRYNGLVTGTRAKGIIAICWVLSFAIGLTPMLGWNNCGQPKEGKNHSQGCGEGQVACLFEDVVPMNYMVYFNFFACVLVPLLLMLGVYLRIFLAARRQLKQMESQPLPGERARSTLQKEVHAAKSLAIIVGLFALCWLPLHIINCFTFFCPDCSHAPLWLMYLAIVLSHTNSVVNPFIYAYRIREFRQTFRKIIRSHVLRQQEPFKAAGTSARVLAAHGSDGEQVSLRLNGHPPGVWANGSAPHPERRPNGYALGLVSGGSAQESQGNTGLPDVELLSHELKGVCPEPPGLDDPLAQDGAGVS
Chain of Adenosine receptor A2a (Mus musculus) (Q60613 whole entry): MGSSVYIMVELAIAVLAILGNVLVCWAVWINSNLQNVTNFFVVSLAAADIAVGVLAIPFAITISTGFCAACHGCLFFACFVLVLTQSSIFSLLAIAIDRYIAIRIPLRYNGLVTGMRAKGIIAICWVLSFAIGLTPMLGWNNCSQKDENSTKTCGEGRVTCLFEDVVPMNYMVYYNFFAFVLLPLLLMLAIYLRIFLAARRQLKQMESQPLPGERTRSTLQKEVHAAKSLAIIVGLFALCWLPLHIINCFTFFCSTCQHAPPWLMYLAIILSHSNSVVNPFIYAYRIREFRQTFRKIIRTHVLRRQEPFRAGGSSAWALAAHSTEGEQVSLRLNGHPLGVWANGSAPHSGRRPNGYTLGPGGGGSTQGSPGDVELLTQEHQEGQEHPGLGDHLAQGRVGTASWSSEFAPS
Chain of Beta-3 adrenergic receptor (Homo sapiens) (P13945 whole entry, looked up): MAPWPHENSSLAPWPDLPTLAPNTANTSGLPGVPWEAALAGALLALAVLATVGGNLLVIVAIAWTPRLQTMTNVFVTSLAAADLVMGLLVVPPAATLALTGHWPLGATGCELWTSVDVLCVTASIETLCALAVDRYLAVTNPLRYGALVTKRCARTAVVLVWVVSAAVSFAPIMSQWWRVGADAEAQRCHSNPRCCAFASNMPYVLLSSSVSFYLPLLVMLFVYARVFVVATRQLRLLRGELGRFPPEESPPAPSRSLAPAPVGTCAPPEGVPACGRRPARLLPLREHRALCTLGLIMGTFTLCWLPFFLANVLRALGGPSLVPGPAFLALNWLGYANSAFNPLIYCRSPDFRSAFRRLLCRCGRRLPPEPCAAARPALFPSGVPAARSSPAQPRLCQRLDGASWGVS
Chain of Sodium-dependent dopamine transporter (Q01959 whole entry): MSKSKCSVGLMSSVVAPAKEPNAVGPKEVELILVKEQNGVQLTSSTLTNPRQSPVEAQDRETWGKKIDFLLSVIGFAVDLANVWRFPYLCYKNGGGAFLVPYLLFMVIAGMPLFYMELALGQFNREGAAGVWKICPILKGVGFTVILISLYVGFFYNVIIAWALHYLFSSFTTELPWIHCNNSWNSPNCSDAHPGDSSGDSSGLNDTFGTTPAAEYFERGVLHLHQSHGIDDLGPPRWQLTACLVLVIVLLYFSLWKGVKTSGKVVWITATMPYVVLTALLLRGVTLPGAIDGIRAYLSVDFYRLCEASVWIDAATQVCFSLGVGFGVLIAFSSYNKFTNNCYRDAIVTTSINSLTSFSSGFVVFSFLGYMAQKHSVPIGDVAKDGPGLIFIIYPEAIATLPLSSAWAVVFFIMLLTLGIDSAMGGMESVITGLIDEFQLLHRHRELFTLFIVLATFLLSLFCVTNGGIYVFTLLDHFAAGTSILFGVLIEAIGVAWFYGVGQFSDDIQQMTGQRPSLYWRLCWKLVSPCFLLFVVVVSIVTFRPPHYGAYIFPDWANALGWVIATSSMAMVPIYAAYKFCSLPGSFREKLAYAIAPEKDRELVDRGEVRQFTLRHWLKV

CCNC(=O)[C@H]1O[C@@H](n2cnc3c(NC)nc(C#C[C@@H](O)c4ccccc4)nc32)[C@H](O)[C@@H]1O
Ki (Adenosine receptor A3 [1]): 0.00075 µM

CCNc1cc(C#Cc2ccc(Cl)s2)nc2c1ncn2[C@H]1[C@H](O)[C@H](O)[C@]2(C(=O)NC)C[C@H]12
Stabilty [2]: Stable | bioavailability [3]: 14% | Activity (HepG2): Non-Toxic | Activity [4]: Active | Stabilty [5]: Stable

CNC(=O)[C@H]1O[C@@H](n2cnc3c(NC)nc(C#Cc4ccc(F)s4)nc32)[C@H](O)[C@@H]1O
inhibition (Adenosine receptor A2a [6]; filed as agonist): 45% | Ki (Adenosine receptor A1 [7]): 0.432 µM | Ki (Adenosine receptor A3 [8]): 0.0023 µM | Ki (Adenosine receptor A3 [9]): 1.51 µM

CCCNc1nc(C#Cc2ccc(Cl)s2)nc2c1ncn2[C@H]1[C@H](O)[C@H](O)[C@]2(C(=O)NC)C[C@H]12
Activity [4]: Active

CCNc1nc(C#Cc2ccc(Cl)s2)nc2c1ncn2[C@H]1[C@H](O)[C@H](O)[C@]2(C(=O)NC)C[C@H]12
Stabilty [2]: Stable | bioavailability [3]: 14% | Activity (HepG2): Non-Toxic | Stabilty [5]: Stable

CNC(=O)[C@@]12C[C@@H]1[C@@H](n1cnc3c(NC)cc(C#Cc4ccc(F)s4)nc31)[C@H](O)[C@@H]2O
inhibition (Adenosine receptor A2a [6]; filed as agonist): 56% | inhibition [10]: 51% | inhibition [11]: 6% | inhibition [12]: 20% | Activity [4]: Active | Ki (Adenosine receptor A3 [8]): 0.000896 µM | Ki (Adenosine receptor A3 [9]): 0.037 µM

CNC(=O)[C@@]12C[C@@H]1[C@@H](n1cnc3c(NC)cc(C#Cc4ccc(Cl)s4)nc31)[C@H](O)[C@@H]2O
Activity [4]: Active

CNC(=O)[C@@]12C[C@@H]1[C@@H](n1cnc3c(NC)nc(C#Cc4ccc(F)s4)nc31)[C@H](O)[C@@H]2O
Stabilty [2]: Stable | bioavailability [3]: 14% | Ki (Adenosine receptor A2a [13]): 4.62 µM | Ki (Adenosine receptor A1 [14]): 3.26 µM | inhibition [11]: 5% | Activity (HepG2): Non-Toxic | inhibition [12]: 33% | Ki (Adenosine receptor A3 [8]): 0.00028 µM | Ki (Adenosine receptor A3 [9]): 0.085 µM | Stabilty [5]: Stable

CNC(=O)[C@@]12C[C@@H]1[C@@H](n1cnc3c(NC)nc(C#Cc4ccc(Cl)s4)nc31)[C@H](O)[C@@H]2O
Stabilty [2]: Stable | Activity [15]: inactive | bioavailability [3]: 14% | Activity (HepG2): Non-Toxic | Stabilty [5]: Stable

CCOC(=O)[C@@]12C[C@@H]1[C@@H](n1cnc3c(NC)nc(C#Cc4ccc(F)s4)nc31)[C@H](O)[C@@H]2O
inhibition (Adenosine receptor A2a [6]): 27% | Ki (Adenosine receptor A1 [14]): 0.864 µM | Ki (Adenosine receptor A1 [7]): 1.67 µM | Ki (Adenosine receptor A3 [8]): 0.0104 µM | Ki (Adenosine receptor A3 [9]): 0.625 µM

CCCNc1cc(C#Cc2ccc(Cl)s2)nc2c1ncn2[C@H]1[C@H](O)[C@H](O)[C@]2(C(=O)NC)C[C@H]12
Ki [16]: 3.94 µM | Ki [17]: 0.76 µM

CNc1nc(C#Cc2ccc(Cl)s2)nc2c1ncn2[C@@H]1O[C@H](C(=O)OC)[C@@H](O)[C@H]1O
inhibition (Adenosine receptor A2a [6]): 8% | inhibition [10]: 53% | inhibition [11]: 12% | inhibition ([12]; filed as agonist): 46%

CNc1nc(C#Cc2ccc(Cl)s2)nc2c1ncn2[C@H]1[C@H](O)[C@H](O)[C@]2(C(=O)OC)C[C@H]12
inhibition (Adenosine receptor A2a [6]): 20% | inhibition [12]: 24%

CNC(=O)[C@H]1O[C@@H](n2cnc3c(NC)cc(C#Cc4ccc(F)s4)nc32)[C@H](O)[C@@H]1O
inhibition (Adenosine receptor A2a [6]): 15% | inhibition ([12]; filed as agonist): 47% | Ki (Adenosine receptor A3 [8]): 0.0266 µM | Ki (Adenosine receptor A3 [9]): 1.2 µM

CCCNc1nc(C#Cc2ccc(F)s2)nc2c1ncn2[C@@H]1O[C@H](C(=O)NC)[C@@H](O)[C@H]1O
Ki (Adenosine receptor A2a [13]): 2.46 µM | Ki (Adenosine receptor A1 [7]): 0.369 µM | Ki (Adenosine receptor A3 [8]): 0.00851 µM | Ki (Adenosine receptor A3 [9]): 0.435 µM

CCCNc1nc(C#Cc2ccc(F)s2)nc2c1ncn2[C@H]1[C@H](O)[C@H](O)[C@]2(C(=O)NC)C[C@H]12
Stabilty [2]: Stable | bioavailability [3]: 14% | Ki (Adenosine receptor A2a [13]): 0.838 µM | Activity (HepG2): Non-Toxic | Ki (Adenosine receptor A1 [7]): 3.98 µM | Ki (Adenosine receptor A3 [8]): 0.00113 µM | Ki (Adenosine receptor A3 [9]): 0.0106 µM | Stabilty [5]: Stable

CCNc1cc(C#Cc2ccc(F)s2)nc2c1ncn2[C@H]1[C@H](O)[C@H](O)[C@]2(C(=O)NC)C[C@H]12
inhibition (Adenosine receptor A2a [6]; filed as agonist): 61% | inhibition [10]: 53% | inhibition [11]: 4% | inhibition [12]: 31% | Activity [4]: Active | Ki (Adenosine receptor A3 [8]): 0.00278 µM | Ki (Adenosine receptor A3 [9]): 0.025 µM

CNC(=O)[C@H]1O[C@@H](n2cnc3c(NC)nc(C#Cc4ccc(Cl)s4)nc32)[C@H](O)[C@@H]1O
inhibition (Adenosine receptor A2a [6]): 7% | Ki (Adenosine receptor A1 [14]): 4.17 µM | inhibition ([12]; filed as agonist): 58%

CCCNc1nc(C#Cc2ccc(Cl)s2)nc2c1ncn2[C@@H]1O[C@H](C(=O)NC)[C@@H](O)[C@H]1O
inhibition (Adenosine receptor A2a [6]; filed as agonist): 49% | Ki (Adenosine receptor A1 [14]): 0.315 µM | Ki (Adenosine receptor A1 [7]): 1.16 µM

CCOC(=O)[C@@]12C[C@@H]1[C@@H](n1cnc3c(NC)cc(C#Cc4ccc(Cl)s4)nc31)[C@H](O)[C@@H]2O
inhibition (Adenosine receptor A2a [6]): 18% | inhibition [10]: 54% | inhibition [11]: 5% | inhibition [12]: 17%

— ChEMBL document CHEMBL4725439, “Direct Comparison of (N)-Methanocarba and Ribose-Containing 2-Arylalkynyladenosine Derivatives as A Receptor Agonists” (ACS Med Chem Lett, 2020)
